Results: PubChem BioAssay (NCI)
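Values below derive from 48-hour exposures of cells grown in 96-well plates, with endpoints linearly interpolated between the two concentrations bracketing the appropriate inhibition level. TGI denotes the concentration required for complete inhibition of growth.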

Columns and labels:
Experiment in all cases: DTP human tumour cell line panel, 48 h
ACHN renal = system: ACHN renal
HCC-2998 colon = system: HCC-2998 colon
IGROV1 ovarian = system: IGROV1 ovarian
NCI-H522 lung = system: NCI-H522 lung
UACC-62 melanoma = system: UACC-62 melanoma
COLO 205 colon = system: COLO 205 colon
UO-31 renal = system: UO-31 renal
NCI-H23 lung = system: NCI-H23 lung
SNB-19 CNS = system: SNB-19 CNS
MDA-MB-231 breast = system: MDA-MB-231 breast
786-0 renal = system: 786-0 renal
M14 melanoma = system: M14 melanoma
MDA-MB-435 = system: MDA-MB-435
DU-145 prostate = system: DU-145 prostate
MALME-3M melanoma = system: MALME-3M melanoma
A498 renal = system: A498 renal
MCF7 breast = system: MCF7 breast
MOLT-4 leukemia = system: MOLT-4 leukemia
SK-OV-3 ovarian = system: SK-OV-3 ovarian
SF-539 CNS = system: SF-539 CNS
SW-620 colon = system: SW-620 colon
SK-MEL-5 melanoma = system: SK-MEL-5 melanoma
LOX IMVI melanoma = system: LOX IMVI melanoma
HT29 colon = system: HT29 colon
K-562 leukemia = system: K-562 leukemia
NCI-H226 lung = system: NCI-H226 lung
UACC-257 melanoma = system: UACC-257 melanoma
MDA-N = system: MDA-N
CAKI-1 renal = system: CAKI-1 renal
OVCAR-8 ovarian = system: OVCAR-8 ovarian
SK-MEL-2 melanoma = system: SK-MEL-2 melanoma
HS 578T breast = system: HS 578T breast
PC-3 prostate = system: PC-3 prostate
HL-60(TB) leukemia = system: HL-60(TB) leukemia
SK-MEL-28 melanoma = system: SK-MEL-28 melanoma
NCI-H460 lung = system: NCI-H460 lung
HOP-62 NSCLC = system: HOP-62 NSCLC
OVCAR-5 ovarian = system: OVCAR-5 ovarian
HOP-92 NSCLC = system: HOP-92 NSCLC
OVCAR-4 ovarian = system: OVCAR-4 ovarian
EKVX NSCLC = system: EKVX NSCLC
TK-10 renal = system: TK-10 renal
BT-549 breast = system: BT-549 breast
SN12C renal = system: SN12C renal
RXF 393 renal = system: RXF 393 renal
SR leukemia = system: SR leukemia
SNB-75 CNS = system: SNB-75 CNS
HCT-15 colon = system: HCT-15 colon
SF-295 CNS = system: SF-295 CNS
SF-268 CNS = system: SF-268 CNS
U251 CNS = system: U251 CNS
OVCAR-3 ovarian = system: OVCAR-3 ovarian
A549 NSCLC = system: A549 NSCLC
RPMI-8226 leukemia = system: RPMI-8226 leukemia
CCRF-CEM leukemia = system: CCRF-CEM leukemia
NCI/ADR-RES ovarian = system: NCI/ADR-RES ovarian
KM12 colon = system: KM12 colon
T-47D breast = system: T-47D breast
HCT-116 colon = system: HCT-116 colon

## Cc1cc2c(cc1C)N1C(Cl)=C3CCCCC3=C(C#N)C1N2 (stereo unspecified)
ACHN renal
  TGI: 10.5 µM
HCC-2998 colon
  TGI: 22.4 µM
IGROV1 ovarian
  TGI: 28.3 µM
NCI-H522 lung
  TGI: 3.91 µM
UACC-62 melanoma
  TGI: 7.63 µM
COLO 205 colon
  TGI: 33.9 µM
UO-31 renal
  TGI: 17.7 µM
NCI-H23 lung
  TGI: 14.2 µM
SNB-19 CNS
  TGI: 45.3 µM
MDA-MB-231 breast
  TGI: 30.1 µM
786-0 renal
  TGI: 3.61 µM
M14 melanoma
  TGI: 21.2 µM
MDA-MB-435
  TGI: > 33.1 µM
DU-145 prostate
  TGI: 36.4 µM
MALME-3M melanoma
  TGI: 34.6 µM
A498 renal
  TGI: 33.8 µM
MCF7 breast
  TGI: 21.6 µM
MOLT-4 leukemia
  TGI: > 42.9 µM
SK-OV-3 ovarian
  TGI: 39.6 µM
SF-539 CNS
  TGI: 41.6 µM
SW-620 colon
  TGI: 4.39 µM
SK-MEL-5 melanoma
  TGI: > 32.8 µM
LOX IMVI melanoma
  TGI: 4.37 µM
HT29 colon
  TGI: 6.94 µM
K-562 leukemia
  TGI: > 100 µM
NCI-H226 lung
  TGI: 30.5 µM
UACC-257 melanoma
  TGI: 22.3 µM
MDA-N
  TGI: 15.1 µM
CAKI-1 renal
  TGI: 12.3 µM
OVCAR-8 ovarian
  TGI: 32.9 µM
SK-MEL-2 melanoma
  TGI: 29.2 µM
HS 578T breast
  TGI: > 100 µM
PC-3 prostate
  TGI: 27.3 µM
HL-60(TB) leukemia
  TGI: > 100 µM
SK-MEL-28 melanoma
  TGI: 10.6 µM
NCI-H460 lung
  TGI: 51.8 µM
HOP-62 NSCLC
  TGI: 30.1 µM
OVCAR-5 ovarian
  TGI: 36 µM
HOP-92 NSCLC
  TGI: > 30.4 µM
OVCAR-4 ovarian
  TGI: 31.7 µM
EKVX NSCLC
  TGI: 41.2 µM
TK-10 renal
  TGI: 18.6 µM
BT-549 breast
  TGI: 8.46 µM
SN12C renal
  TGI: 14.7 µM
RXF 393 renal
  TGI: 29 µM
SR leukemia
  TGI: > 100 µM
SNB-75 CNS
  TGI: 56.9 µM
HCT-15 colon
  TGI: 7.76 µM
SF-295 CNS
  TGI: 42.4 µM
SF-268 CNS
  TGI: 60.4 µM
U251 CNS
  TGI: 24.6 µM
OVCAR-3 ovarian
  TGI: 30.5 µM
A549 NSCLC
  TGI: 45.8 µM
RPMI-8226 leukemia
  TGI: > 100 µM
CCRF-CEM leukemia
  TGI: > 23.2 µM
NCI/ADR-RES ovarian
  TGI: 14.5 µM
KM12 colon
  TGI: 24 µM
T-47D breast
  TGI: 28.3 µM

## COC(=O)[C@@]12OC[C@]34[C@H]([C@@H](O)[C@@H]1O)[C@@]1(C)CC(=O)C(OC(C)=O)=C(C)[C@@H]1C[C@H]3OC(=O)[C@H](OC(=O)C=C(C)C)[C@@H]24
ACHN renal
  TGI: 10.8 µM
HCC-2998 colon
  TGI: 0.716 µM
IGROV1 ovarian
  TGI: 2.59 µM
NCI-H522 lung
  TGI: 1.49 µM
UACC-62 melanoma
  TGI: 3.16 µM
COLO 205 colon
  TGI: 2.79 µM
HCT-116 colon
  TGI: 2 µM
UO-31 renal
  TGI: 14.5 µM
NCI-H23 lung
  TGI: 2.2 µM
SNB-19 CNS
  TGI: 77.8 µM
MDA-MB-231 breast
  TGI: 5.8 µM
786-0 renal
  TGI: 3.19 µM
M14 melanoma
  TGI: 2.63 µM
MDA-MB-435
  TGI: 3.45 µM
DU-145 prostate
  TGI: 6.37 µM
MALME-3M melanoma
  TGI: 1.2 µM
A498 renal
  TGI: 1.78 µM
MCF7 breast
  TGI: 2.99 µM
MOLT-4 leukemia
  TGI: 4.23 µM
SK-OV-3 ovarian
  TGI: 1.78 µM
SF-539 CNS
  TGI: 1.82 µM
SK-MEL-5 melanoma
  TGI: 1.33 µM
LOX IMVI melanoma
  TGI: 0.981 µM
HT29 colon
  TGI: 58.3 µM
K-562 leukemia
  TGI: 9.7 µM
NCI-H226 lung
  TGI: 3.94 µM
UACC-257 melanoma
  TGI: 2.28 µM
MDA-N
  TGI: 3.2 µM
CAKI-1 renal
  TGI: 10.8 µM
OVCAR-8 ovarian
  TGI: 2.54 µM
SK-MEL-2 melanoma
  TGI: 2.79 µM
HS 578T breast
  TGI: 3.32 µM
PC-3 prostate
  TGI: 4.01 µM
HL-60(TB) leukemia
  TGI: 1.65 µM
SK-MEL-28 melanoma
  TGI: 2.67 µM
NCI-H460 lung
  TGI: 1.38 µM
HOP-62 NSCLC
  TGI: 2.86 µM
OVCAR-5 ovarian
  TGI: 6.79 µM
HOP-92 NSCLC
  TGI: 4.04 µM
OVCAR-4 ovarian
  TGI: 4.05 µM
EKVX NSCLC
  TGI: 5.38 µM
TK-10 renal
  TGI: 4.75 µM
BT-549 breast
  TGI: 5.27 µM
SN12C renal
  TGI: 4.52 µM
RXF 393 renal
  TGI: 3.41 µM
SR leukemia
  TGI: 2.07 µM
SNB-75 CNS
  TGI: 4.45 µM
HCT-15 colon
  TGI: 7.46 µM
SF-295 CNS
  TGI: 3 µM
SF-268 CNS
  TGI: 3.05 µM
U251 CNS
  TGI: 3.26 µM
OVCAR-3 ovarian
  TGI: 1.01 µM
A549 NSCLC
  TGI: 4.92 µM
RPMI-8226 leukemia
  TGI: 3.21 µM
CCRF-CEM leukemia
  TGI: 3.83 µM
NCI/ADR-RES ovarian
  TGI: 57.4 µM
KM12 colon
  TGI: 4.18 µM
T-47D breast
  TGI: 5.93 µM
